# From ChEMBL document CHEMBL5653615 (J Biol Chem, 2013)
# Key:
# [1] = molecular target: Cyclin-dependent kinase 7/ cyclin H (Homo sapiens) (UniProt P51946+P50613); experiment: Inhibition of human CDK7/cyclin H at 18.6 nM by HotSpot assay relative to control; format: protein-complex assay
# [2] = molecular target: Vascular endothelial growth factor receptor 3 (Homo sapiens) (UniProt P35916); experiment: Inhibition of human FLT4 at 18.6 nM by HotSpot assay relative to control
# [3] = molecular target: Tyrosine-protein kinase Fes/Fps (Homo sapiens) (UniProt P07332); experiment: Inhibition of human FES at 18.6 nM by HotSpot assay relative to control
# [4] = molecular target: Death-associated protein kinase 3 (Homo sapiens) (UniProt O43293); experiment: Inhibition of human DAPK3 at 18.6 nM by HotSpot assay relative to control
# [5] = molecular target: Protein kinase C eta type (Homo sapiens) (UniProt P24723); experiment: Inhibition of human PKCeta at 18.6 nM by HotSpot assay relative to control
# [6] = molecular target: T1, cAMP-dependent protein kinase catalytic subunit PRKX (Homo sapiens) (UniProt P51817); experiment: Inhibition of human PRKX at 18.6 nM by HotSpot assay relative to control
# T1 sequence (whole entry): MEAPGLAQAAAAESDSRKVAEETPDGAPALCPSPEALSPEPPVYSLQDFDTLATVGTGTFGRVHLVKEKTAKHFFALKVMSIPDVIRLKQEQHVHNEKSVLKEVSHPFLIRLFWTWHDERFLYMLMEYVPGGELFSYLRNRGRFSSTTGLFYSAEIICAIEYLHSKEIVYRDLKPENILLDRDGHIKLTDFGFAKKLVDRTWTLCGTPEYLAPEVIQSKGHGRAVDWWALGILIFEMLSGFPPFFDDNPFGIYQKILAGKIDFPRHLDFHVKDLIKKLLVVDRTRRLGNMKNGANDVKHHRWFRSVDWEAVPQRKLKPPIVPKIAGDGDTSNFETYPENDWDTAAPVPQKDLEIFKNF
# [7] = molecular target: SRSF protein kinase 2 (Homo sapiens) (UniProt P78362); experiment: Inhibition of human SRPK2 at 18.6 nM by HotSpot assay relative to control
# [8] = molecular target: T2, Serine/threonine-protein kinase 4 (Homo sapiens) (UniProt Q13043); experiment: Inhibition of human STK4 at 18.6 nM by HotSpot assay relative to control
# T2 sequence (whole entry): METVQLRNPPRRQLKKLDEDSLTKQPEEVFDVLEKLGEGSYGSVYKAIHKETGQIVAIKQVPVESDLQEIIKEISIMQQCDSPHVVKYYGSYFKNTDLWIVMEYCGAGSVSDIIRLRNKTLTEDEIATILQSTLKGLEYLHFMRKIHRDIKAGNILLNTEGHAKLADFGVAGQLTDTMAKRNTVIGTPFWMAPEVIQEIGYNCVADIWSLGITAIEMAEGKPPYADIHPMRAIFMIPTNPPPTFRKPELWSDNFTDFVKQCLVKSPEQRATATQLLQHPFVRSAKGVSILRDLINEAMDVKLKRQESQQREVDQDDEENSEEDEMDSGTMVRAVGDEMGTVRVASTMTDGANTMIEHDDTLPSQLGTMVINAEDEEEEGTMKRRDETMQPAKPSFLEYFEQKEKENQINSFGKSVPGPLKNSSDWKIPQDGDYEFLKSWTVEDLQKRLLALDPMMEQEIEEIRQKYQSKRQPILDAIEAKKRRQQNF
# [9] = molecular target: Proto-oncogene tyrosine-protein kinase ROS (Homo sapiens) (UniProt P08922); experiment: Inhibition of human ROS1 at 1.82 nM by HotSpot assay relative to control
# [10] = molecular target: Serine/threonine-protein kinase 26 (Homo sapiens) (UniProt Q9P289); experiment: Inhibition of human MST4 at 1.82 nM by HotSpot assay relative to control
# [11] = molecular target: T3, Mitogen-activated protein kinase kinase kinase 3 (Homo sapiens) (UniProt Q99759); experiment: Inhibition of human MEKK3 at 1.82 nM by HotSpot assay relative to control
# T3 sequence (whole entry): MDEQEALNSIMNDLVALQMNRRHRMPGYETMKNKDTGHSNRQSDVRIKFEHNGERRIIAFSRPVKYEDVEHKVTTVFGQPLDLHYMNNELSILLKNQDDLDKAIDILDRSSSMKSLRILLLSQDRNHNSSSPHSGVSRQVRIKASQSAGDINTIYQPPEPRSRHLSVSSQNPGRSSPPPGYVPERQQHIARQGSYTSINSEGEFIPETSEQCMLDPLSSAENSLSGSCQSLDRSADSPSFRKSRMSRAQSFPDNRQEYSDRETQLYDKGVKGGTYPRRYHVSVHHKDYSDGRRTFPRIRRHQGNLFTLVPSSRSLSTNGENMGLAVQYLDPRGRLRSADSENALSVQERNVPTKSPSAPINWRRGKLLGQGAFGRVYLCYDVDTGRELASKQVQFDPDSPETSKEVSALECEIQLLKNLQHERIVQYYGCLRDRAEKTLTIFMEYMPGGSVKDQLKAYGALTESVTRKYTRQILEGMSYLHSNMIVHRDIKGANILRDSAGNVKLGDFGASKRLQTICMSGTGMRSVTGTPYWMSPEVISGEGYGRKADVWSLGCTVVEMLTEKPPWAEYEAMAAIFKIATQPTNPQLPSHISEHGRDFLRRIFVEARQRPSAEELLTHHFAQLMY
# [12] = molecular target: Calcium/calmodulin-dependent protein kinase type II subunit delta (Homo sapiens) (UniProt Q13557); experiment: Inhibition of human CAMK2d at 1.82 nM by HotSpot assay relative to control
# [13] = molecular target: Mitogen-activated protein kinase 1 (Homo sapiens) (UniProt P28482); experiment: Inhibition of human ERK2 at 1.82 nM by HotSpot assay relative to control
# [14] = molecular target: TGF-beta receptor type-2 (Homo sapiens) (UniProt P37173); experiment: Inhibition of human TGFBR2 at 1.82 nM by HotSpot assay relative to control
# Sequence of Protein kinase C eta type (Homo sapiens) (P24723 whole entry): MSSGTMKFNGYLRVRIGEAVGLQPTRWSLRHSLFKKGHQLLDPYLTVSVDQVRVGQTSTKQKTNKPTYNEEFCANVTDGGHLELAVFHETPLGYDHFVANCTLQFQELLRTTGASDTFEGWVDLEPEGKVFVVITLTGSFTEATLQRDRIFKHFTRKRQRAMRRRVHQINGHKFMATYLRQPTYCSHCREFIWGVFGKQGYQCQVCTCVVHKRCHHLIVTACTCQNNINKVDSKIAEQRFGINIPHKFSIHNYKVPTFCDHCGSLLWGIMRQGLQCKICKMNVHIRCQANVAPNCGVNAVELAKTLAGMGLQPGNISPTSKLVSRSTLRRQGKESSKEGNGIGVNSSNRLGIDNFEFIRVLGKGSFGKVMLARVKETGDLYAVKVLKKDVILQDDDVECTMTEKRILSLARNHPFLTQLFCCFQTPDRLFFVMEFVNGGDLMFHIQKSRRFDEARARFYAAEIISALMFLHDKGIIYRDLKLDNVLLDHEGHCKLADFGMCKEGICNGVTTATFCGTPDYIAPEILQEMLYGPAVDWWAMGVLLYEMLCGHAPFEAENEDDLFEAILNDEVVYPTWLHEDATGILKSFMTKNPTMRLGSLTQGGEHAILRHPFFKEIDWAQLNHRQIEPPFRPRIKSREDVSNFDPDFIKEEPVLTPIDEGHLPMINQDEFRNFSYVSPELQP
# Sequence of Proto-oncogene tyrosine-protein kinase ROS (Homo sapiens) (P08922 whole entry): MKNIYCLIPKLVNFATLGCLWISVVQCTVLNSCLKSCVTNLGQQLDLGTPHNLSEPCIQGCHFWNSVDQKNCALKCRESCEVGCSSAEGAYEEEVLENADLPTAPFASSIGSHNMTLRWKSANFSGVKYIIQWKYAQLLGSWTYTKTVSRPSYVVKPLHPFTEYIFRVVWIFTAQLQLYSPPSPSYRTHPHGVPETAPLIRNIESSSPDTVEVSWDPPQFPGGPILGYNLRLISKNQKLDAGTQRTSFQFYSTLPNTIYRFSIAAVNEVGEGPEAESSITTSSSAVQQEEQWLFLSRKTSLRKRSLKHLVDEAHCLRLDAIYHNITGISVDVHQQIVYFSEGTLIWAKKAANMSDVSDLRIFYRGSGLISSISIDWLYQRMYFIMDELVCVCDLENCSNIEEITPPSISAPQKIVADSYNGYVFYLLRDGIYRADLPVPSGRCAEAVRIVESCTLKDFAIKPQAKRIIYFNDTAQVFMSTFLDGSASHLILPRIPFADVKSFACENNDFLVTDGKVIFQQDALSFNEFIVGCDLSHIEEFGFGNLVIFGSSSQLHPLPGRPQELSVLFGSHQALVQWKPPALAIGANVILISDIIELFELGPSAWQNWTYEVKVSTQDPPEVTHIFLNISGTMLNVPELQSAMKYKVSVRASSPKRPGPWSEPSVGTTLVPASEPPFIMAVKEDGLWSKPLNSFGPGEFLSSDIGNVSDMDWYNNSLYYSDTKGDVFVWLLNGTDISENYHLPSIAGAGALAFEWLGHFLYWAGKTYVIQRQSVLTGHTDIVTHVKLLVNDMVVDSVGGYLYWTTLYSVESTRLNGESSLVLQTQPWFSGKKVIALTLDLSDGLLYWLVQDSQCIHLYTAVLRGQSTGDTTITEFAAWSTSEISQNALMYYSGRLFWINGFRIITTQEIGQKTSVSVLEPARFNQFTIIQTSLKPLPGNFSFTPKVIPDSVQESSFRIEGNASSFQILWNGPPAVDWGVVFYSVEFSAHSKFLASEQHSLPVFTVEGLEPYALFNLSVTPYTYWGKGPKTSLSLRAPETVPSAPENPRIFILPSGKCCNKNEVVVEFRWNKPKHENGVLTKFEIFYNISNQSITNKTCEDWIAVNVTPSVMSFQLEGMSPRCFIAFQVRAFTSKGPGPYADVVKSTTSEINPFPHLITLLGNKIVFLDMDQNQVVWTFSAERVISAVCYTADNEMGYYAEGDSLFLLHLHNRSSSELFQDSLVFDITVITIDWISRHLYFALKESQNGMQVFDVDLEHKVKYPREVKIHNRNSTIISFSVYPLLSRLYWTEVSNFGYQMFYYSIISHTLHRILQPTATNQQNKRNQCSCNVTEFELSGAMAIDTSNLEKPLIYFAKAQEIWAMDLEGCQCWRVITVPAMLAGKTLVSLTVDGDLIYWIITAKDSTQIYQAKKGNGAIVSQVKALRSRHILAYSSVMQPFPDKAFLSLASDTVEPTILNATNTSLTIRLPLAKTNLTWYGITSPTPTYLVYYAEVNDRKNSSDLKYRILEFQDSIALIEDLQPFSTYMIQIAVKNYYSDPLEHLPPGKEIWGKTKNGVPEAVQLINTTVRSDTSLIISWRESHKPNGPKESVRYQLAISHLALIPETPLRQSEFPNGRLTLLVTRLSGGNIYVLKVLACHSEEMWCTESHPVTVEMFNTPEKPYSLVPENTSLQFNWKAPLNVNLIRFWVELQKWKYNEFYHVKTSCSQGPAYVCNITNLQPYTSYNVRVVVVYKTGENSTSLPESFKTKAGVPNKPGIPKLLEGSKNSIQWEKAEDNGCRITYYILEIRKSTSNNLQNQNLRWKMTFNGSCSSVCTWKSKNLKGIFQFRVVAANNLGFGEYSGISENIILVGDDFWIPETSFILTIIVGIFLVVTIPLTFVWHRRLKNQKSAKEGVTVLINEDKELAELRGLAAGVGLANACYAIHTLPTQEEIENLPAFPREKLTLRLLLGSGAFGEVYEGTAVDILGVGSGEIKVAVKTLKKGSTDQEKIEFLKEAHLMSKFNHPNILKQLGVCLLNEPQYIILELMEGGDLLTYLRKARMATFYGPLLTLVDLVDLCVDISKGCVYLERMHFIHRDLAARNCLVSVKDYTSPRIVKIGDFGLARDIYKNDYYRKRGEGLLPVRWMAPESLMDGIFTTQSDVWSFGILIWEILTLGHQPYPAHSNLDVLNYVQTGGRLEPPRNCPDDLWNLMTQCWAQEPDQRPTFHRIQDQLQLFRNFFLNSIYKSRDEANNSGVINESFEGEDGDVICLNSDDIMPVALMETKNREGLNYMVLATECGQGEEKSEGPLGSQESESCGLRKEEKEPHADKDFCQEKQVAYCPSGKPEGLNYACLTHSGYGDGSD
# Sequence of Death-associated protein kinase 3 (Homo sapiens) (O43293 whole entry, looked up): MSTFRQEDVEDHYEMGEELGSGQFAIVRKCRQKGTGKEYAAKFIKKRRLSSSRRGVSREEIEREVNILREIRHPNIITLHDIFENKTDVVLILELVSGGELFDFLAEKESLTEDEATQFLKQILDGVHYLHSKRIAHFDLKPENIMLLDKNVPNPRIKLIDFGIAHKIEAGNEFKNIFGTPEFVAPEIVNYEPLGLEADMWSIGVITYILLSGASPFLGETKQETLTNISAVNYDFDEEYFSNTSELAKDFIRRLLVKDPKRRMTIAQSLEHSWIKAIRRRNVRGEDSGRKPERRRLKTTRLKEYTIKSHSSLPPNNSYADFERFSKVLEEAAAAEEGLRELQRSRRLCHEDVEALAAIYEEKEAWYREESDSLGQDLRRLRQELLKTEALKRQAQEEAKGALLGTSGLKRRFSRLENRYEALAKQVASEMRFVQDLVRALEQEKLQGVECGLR
# Sequence of Vascular endothelial growth factor receptor 3 (Homo sapiens) (P35916 whole entry): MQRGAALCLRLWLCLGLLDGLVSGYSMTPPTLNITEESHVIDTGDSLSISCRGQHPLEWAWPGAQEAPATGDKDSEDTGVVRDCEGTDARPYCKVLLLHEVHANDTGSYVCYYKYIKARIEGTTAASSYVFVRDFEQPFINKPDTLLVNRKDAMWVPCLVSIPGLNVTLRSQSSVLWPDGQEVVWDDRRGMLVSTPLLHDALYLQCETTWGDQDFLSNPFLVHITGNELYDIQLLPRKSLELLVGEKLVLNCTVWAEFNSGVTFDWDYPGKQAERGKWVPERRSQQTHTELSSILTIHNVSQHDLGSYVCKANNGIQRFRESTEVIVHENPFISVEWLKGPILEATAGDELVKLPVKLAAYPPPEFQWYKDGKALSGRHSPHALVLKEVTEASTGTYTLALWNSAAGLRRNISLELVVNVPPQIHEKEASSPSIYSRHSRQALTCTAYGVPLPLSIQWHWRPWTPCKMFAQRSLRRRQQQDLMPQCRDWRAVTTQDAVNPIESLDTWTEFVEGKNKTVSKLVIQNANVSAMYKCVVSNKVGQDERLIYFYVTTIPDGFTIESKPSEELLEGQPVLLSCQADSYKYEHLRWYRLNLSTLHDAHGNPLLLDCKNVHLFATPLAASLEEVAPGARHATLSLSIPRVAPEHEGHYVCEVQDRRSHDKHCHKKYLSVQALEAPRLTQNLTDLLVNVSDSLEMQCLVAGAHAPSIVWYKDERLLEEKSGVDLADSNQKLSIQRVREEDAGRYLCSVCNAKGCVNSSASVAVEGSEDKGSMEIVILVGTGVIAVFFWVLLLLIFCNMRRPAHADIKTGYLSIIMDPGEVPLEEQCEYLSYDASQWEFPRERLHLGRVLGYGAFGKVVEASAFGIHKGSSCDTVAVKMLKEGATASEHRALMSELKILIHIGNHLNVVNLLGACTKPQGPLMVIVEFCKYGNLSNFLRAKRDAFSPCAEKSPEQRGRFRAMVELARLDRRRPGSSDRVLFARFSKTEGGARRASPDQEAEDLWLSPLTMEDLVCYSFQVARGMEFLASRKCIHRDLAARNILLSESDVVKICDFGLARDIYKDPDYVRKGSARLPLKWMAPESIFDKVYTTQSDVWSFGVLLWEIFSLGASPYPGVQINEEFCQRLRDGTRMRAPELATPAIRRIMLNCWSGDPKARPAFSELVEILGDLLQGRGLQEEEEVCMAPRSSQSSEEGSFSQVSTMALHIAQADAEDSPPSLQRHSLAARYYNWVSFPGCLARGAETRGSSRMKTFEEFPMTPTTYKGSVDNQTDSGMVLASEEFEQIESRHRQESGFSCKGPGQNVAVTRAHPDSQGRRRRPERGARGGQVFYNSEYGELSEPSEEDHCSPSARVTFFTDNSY
inhibition [1],inhibition [2],inhibition [3],inhibition [5],inhibition [6],inhibition [7],inhibition [8],inhibition [9],inhibition [10],inhibition [11],inhibition [12],inhibition [13],inhibition [14],Structure (SMILES),inhibition [4]
-4.42%,-2.25%,1.59%,1.29%,-0.35%,-1.64%,6.04%,–,–,–,–,–,–,C[C@]1(O)C[C@@H](c2nc(-c3ccc4ccc(-c5ccccc5)nc4c3)c3c(N)nccn32)C1,6.02%
–,–,–,–,–,–,–,73.5%,-1.09%,-2.8%,-2.72%,-3.61%,5.94%,C[C@@]1(C(=O)Nc2ccc(F)nc2)CCCN1c1nc(Nc2cc(C3CC3)n[nH]2)c2cccn2n1,–
